In US11629331B2, “Method of differentiation of human induced pluripotent stem cell to dermal papilla precursor cell and use thereof” (SEOUL NATIONAL UNIVERSITY R & DB FOUNDATION, priority 2017, dated 2023):

Test system: neural crest stem cells
Assay: Flow cytometry (SDC1, CD133) of differentiation of neural crest stem cells into dermal papilla precursor cells
Type: cell-based, human
Details: CHIR-99021 at 0.1 μM, 1 μM and 10 μM with bFGF and BMP4; after about 2 weeks
Excerpt: To develop a dermal papilla precursor cell medium composition for inducing differentiation of dermal papilla precursor cells from neural crest stem cells, the possibility of differentiation into dermal papilla precursor cells was examined by treatment with several factors alone known as vital materials for dermal papilla cell differentiation or a combination thereof. To confirm differentiation into dermal papilla precursor cells, mouse anti-human SDC1 and CD133/2 antibodies were stained using PBS supplemented with 2% FBS, and then the stained cells were analyzed using a flow cytometer (BD Biosciences). A DMEM/[…]) (Reference 1) (Thermo Fisher, catalog no. […] To determine the role of a GSK-3 inhibitor as a WNT signal activator in the dermal papilla precursor cell medium composition for inducing differentiation of dermal papilla precursor cells from neural crest stem cells, the possibility of differentiation into dermal papilla precursor cells was examined by treatment with not only 6-bromoindirubin-3'-oxime (BIO) but also CHIR-99021 at 0.1 μM, 1 μM, and 10 μM. To confirm the possibility of differentiation into dermal papilla precursor cells, mouse anti-human SDC1 and CD133/2 antibodies were stained using PBS supplemented with 2% FBS, and then the stained cells were analyzed using a flow cytometer (BD Biosciences). A DMEM/[…]) (Reference 1) (Thermo Fisher, catalog no. […]

Q: With `Cc1c[nH]c(-c2cnc(NCCNc3ccc(C#N)cn3)nc2-c2ccc(Cl)cc2Cl)n1` [CHIR-99021] as the compound, how does the “differentiation efficiency into dermal papilla precursor cells (SDC1, CD133 flow cytometry)” value read?
A: differentiation efficiency increased according to the concentration
